Assay results from patent US7208526B2, “Styrylsulfonamides” (Hoffmann-La Roche Inc., priority 2005, dated 2007).
Where a name gives a salt, the structure may show the parent alone.

System: HCT 116 cells (human colon carcinoma, ATCC-No. CCl-247)
Experiment: Viability assay in HCT 116 cells (CellTiter-Glo Luminescent Cell Viability Assay)
Format: cell-based
Settings: 10 concentrations 30 μM to 0.0015 μM, incubation 120 h (5 days), luminescence (ATP), triplicate
Description: Viability Assay in HCT 116 Cells
This assay is a homogeneous method of determining the number of viable cells in culture based on quantitation of the ATP present, an indicator of metabolically active cells. The assay is designed for use with multiwell formats, making it ideal for automated high-throughput screening (HTS), cell proliferation and cytotoxicity assays. The homogeneous assay procedure involves adding a single reagent (containing luciferase, luciferan substrate, and buffer) directly to cells cultured in serum-supplemented medium. Cell washing, removal of medium and multiple pipetting steps are not required. The system detects as few as 15 cells/well in a 384-well format in 10 minutes after adding reagent and mixing.
The homogeneous “add-mix-measure” format results in cell lysis and generation of a luminescent signal proportional to the amount of ATP present. The amount of ATP is directly proportional to the number of cells present in culture. The above-referenced assay generates a “glow-type” luminescent signal, produced by the luciferase reaction, which has a half-life generally greater than five hours, depending on cell type and medium used. The extended half-life eliminates the need to use reagent injectors and provides flexibility for continuous or batch mode processing of multiple plates. The unique homogeneous format avoids errors that may be introduced by other ATP measurement methods that require multiple steps.
For the assay the cells were seeded in 384 well plates, 1000 cells per well, in the same medium. […] After 5 days the viability assay was done according to the instructions of the manufacturer. In brief: the cell-plate was equilibrated to room temperature for approximately 30 minutes and then reagent (containing luciferase, luciferan substrate, and buffer) was added. The contents were carefully mixed for 15 minutes to induce cell lysis. After 45 minutes the luminescent signal was measured in Victor 2, (scanning multiwell spectrophotometer, Wallac).
In order to achieve a final concentration of 30 μM as highest concentration […] of 10 mM compound stock solution were added directly to 163 μl media. Then step e) of the dilution procedure described below, was followed.
Analysis: • Add 30 μl of reagent containing luciferase, luciferan substrate, and buffer per well, • shake 15 minutes at room temperature • incubate further 45 minutes at room temperature without shaking
Measurement: • Victor 2 scanning multiwell spectrophotometer (Wallac), Luminescence mode (0.5 sec/read, 477 nm) • Determine IC50 using a non-linear curve fit (XLfit® software [ID Business Solution Ltd., Guilford, Surrey, UK])

Question: How did the IC50 turn out when `O=C(NS(=O)(=O)/C=C/c1ccc(Cl)cc1)c1ccc(Cl)cc1Cl` [Example 1-1, (E)-2-(4-Chloro-phenyl)-ethenesulfonic acid 2,4-dichloro-benzoylamide] was run?
Answer: 8.5 µM

Question: Which IC50 does the source give for `O=C(NS(=O)(=O)/C=C/c1ccccc1)c1ccc(Cl)cc1Cl` [Example 1-2, (E)-2-Phenyl-ethenesulfonic acid 2,4-dichloro-benzoylamide] here?
Answer: 3.1 µM

Question: Which IC50 does the source give for `O=C(NS(=O)(=O)/C=C/c1ccc(C(F)(F)F)cc1)c1ccc(Cl)cc1Cl` [Example 1-3, (E)-2-(4-Trifluoromethyl-phenyl)-ethenesulfonic acid 2,4-dichloro-benzoylamide] here?
Answer: 0.5 to 15 µM

Question: For `Cc1ccc(/C=C/S(=O)(=O)NC(=O)c2ccc(Cl)cc2Cl)c(C)c1` [Example 1-4, (E)-2-(2,4-Dimethyl-phenyl)-ethenesulfonic acid 2,4-dichloro-benzoylamide], which IC50 is on record?
Answer: 0.5 to 15 µM

Question: With `COc1ccccc1/C=C/S(=O)(=O)NC(=O)c1ccc(Cl)cc1Cl` [Example 1-5, (E)-2-(2-Methoxy-phenyl)-ethenesulfonic acid 2,4-dichloro-benzoylamide] as the compound, how does the IC50 read?
Answer: 0.5 to 15 µM

Question: How did the IC50 turn out when `O=C(NS(=O)(=O)/C=C/c1ccccc1Cl)c1ccc(Cl)cc1Cl` [Example 1-7, (E)-2-(2-Chlorophenyl)-ethenesulfonic acid 2,4-dichloro-benzoylamide] was run?
Answer: 0.5 to 15 µM

Question: With `O=C(NS(=O)(=O)/C=C/c1ccc(F)cc1F)c1ccc(Cl)cc1Cl` [Example 1-8, (E)-2-(2,4-Difluoro-phenyl)-ethenesulfonic acid 2,4-dichloro-benzoylamide] as the compound, how does the IC50 read?
Answer: 0.5 to 15 µM

Question: For `O=C(NS(=O)(=O)/C=C/c1ccc(OC(F)(F)F)cc1)c1ccc(Cl)cc1Cl` [Example 1-9, (E)-2-(4-Trifluoromethoxyphenyl)-ethenesulfonic acid 2,4-dichloro-benzoylamide], which IC50 is on record?
Answer: 0.5 to 15 µM

Question: How did the IC50 turn out when `CN(C)c1ccccc1/C=C/S(=O)(=O)NC(=O)c1ccc(Cl)cc1Cl` [Example 1-13, (E)-2-(2-Dimethylamino-phenyl)-ethenesulfonic acid 2,4-dichloro-benzoylamide] was run?
Answer: 0.5 to 15 µM

Question: For `COc1cccc(/C=C/S(=O)(=O)NC(=O)c2ccc(F)cc2Cl)c1` [Example 1-14, (E)-2-(3-Methoxy-phenyl)-ethenesulfonic acid 2-chloro-4-fluoro-benzoylamide; sodium salt], which IC50 is on record?
Answer: 0.5 to 15 µM

Question: For `O=C(NS(=O)(=O)/C=C/c1ccc(F)cc1F)c1ccc(F)cc1Cl` [Example 1-17, (E)-2-(2,4-Difluoro-phenyl)-ethenesulfonic acid 2-chloro-4-fluoro-benzoylamide; sodium salt], which IC50 is on record?
Answer: 0.5 to 15 µM

Question: Which IC50 does the source give for `Cc1ccc(/C=C/S(=O)(=O)NC(=O)c2ccc(F)cc2C(F)(F)F)c(C)c1` [Example 1-20, (E)-2-(2,4-Dimethyl-phenyl)-ethenesulfonic acid 4-fluoro-2-trifluoromethyl-benzoylamide; sodium salt] here?
Answer: 0.5 to 15 µM

Question: How did the IC50 turn out when `O=C(NS(=O)(=O)/C=C/c1ccccc1Cl)c1ccc(F)cc1C(F)(F)F` [Example 1-23, (E)-2-(2-Chlorophenyl)-ethenesulfonic acid 4-fluoro-2-trifluoromethyl-benzoylamide; sodium salt] was run?
Answer: 0.5 to 15 µM

Question: For `Cc1ccc(/C=C/S(=O)(=O)NC(=O)c2ccc(C(F)(F)F)cc2C(F)(F)F)c(C)c1` [Example 1-26, (E)-2-(2,4-Dimethyl-phenyl)-ethenesulfonic acid 2,4-bis-trifluoromethyl-benzoylamide; sodium salt], which IC50 is on record?
Answer: 0.5 to 15 µM

Question: With `COc1ccccc1/C=C/S(=O)(=O)NC(=O)c1ccc(C(F)(F)F)cc1C(F)(F)F` [Example 1-28, (E)-2-(2-Methoxy-phenyl)-ethenesulfonic acid 2,4-bis-trifluoromethyl-benzoylamide; sodium salt] as the compound, how does the IC50 read?
Answer: 0.5 to 15 µM

Question: How did the IC50 turn out when `O=C(NS(=O)(=O)/C=C/c1ccccc1Cl)c1ccc(C(F)(F)F)cc1C(F)(F)F` [Example 1-30, (E)-2-(2-Chlorophenyl)-ethenesulfonic acid 2,4-bis-trifluoromethyl-benzoylamide; sodium salt] was run?
Answer: 0.5 to 15 µM

Question: `O=C(NS(=O)(=O)/C=C/c1ccccc1O)c1ccc(Cl)cc1Cl` [Example 1-33, (E)-2-(2-Hydroxy-phenyl)-ethenesulfonic acid 2,4-dichloro-benzoylamide] was tested. Which IC50 did it give?
Answer: 0.5 to 15 µM

Question: `O=C(NS(=O)(=O)/C=C/c1cccc(O)c1)c1ccc(Cl)cc1Cl` [Example 1-35, (E)-2-(3-Hydroxy-phenyl)-ethenesulfonic acid 2,4-dichloro-benzoylamide] was tested. Which IC50 did it give?
Answer: 0.5 to 15 µM

Question: Which IC50 does the source give for `O=C(NS(=O)(=O)/C=C/c1c(F)cc(F)cc1F)c1ccc(Cl)cc1Cl` [Example 1-36, (E)-2-(2,4,6-Trifluoro-phenyl)-ethenesulfonic acid 2,4-dichloro-benzoylamide; sodium salt] here?
Answer: 0.5 to 15 µM

Question: `O=C(NS(=O)(=O)/C=C/c1ccc(OC(F)(F)F)cc1)c1ccc(F)cc1Cl` [Example 1-39, (E)-2-(4-Trifluoromethoxyphenyl)-ethenesulfonic acid 2-chloro-4-fluoro-benzoylamide; sodium salt] was tested. Which IC50 did it give?
Answer: 0.5 to 15 µM

Question: With `O=C(NS(=O)(=O)/C=C/c1ccc(C(F)(F)F)cc1)c1ccc(F)cc1C(F)(F)F` [Example 1-42, (E)-2-(4-Trifluoromethyl-phenyl)-ethenesulfonic acid 4-fluoro-2-trifluoromethyl-benzoylamide; sodium salt] as the compound, how does the IC50 read?
Answer: 0.5 to 15 µM

Question: For `O=C(NS(=O)(=O)C=Cc1ccccc1)c1ccc(Cl)cc1F` [Example 1-43, 2-Phenyl-ethenesulfonic acid 4-chloro-2-fluoro-benzoylamide], which IC50 is on record?
Answer: 0.5 to 15 µM

Question: For `O=C(NS(=O)(=O)/C=C/c1ccccc1)c1ccc(F)cc1C(F)(F)F` [Example 1-45, (E)-2-Phenyl-ethenesulfonic acid 4-fluoro-2-trifluoromethyl-benzoylamide; sodium salt], which IC50 is on record?
Answer: 0.5 to 15 µM

Question: How did the IC50 turn out when `C/C(=C\c1ccccc1)S(=O)(=O)NC(=O)c1ccc(Cl)cc1Cl` [Example 2-1, (E)-1-Phenyl-propene-2-sulfonic acid 2,4-dichloro-benzoylamide] was run?
Answer: 0.5 to 15 µM

Question: How did the IC50 turn out when `C/C(=C\S(=O)(=O)NC(=O)c1ccc(Cl)cc1Cl)c1ccccc1` [Example 3-1, (E)-2-Phenyl-propene-1-sulfonic acid 2,4-dichloro-benzoylamide] was run?
Answer: 9.2 µM

Question: `Cc1cc(Cl)ccc1C(=O)NS(=O)(=O)/C=C/c1ccccc1Cl` [Example 4-2, (E)-2-(2-Chlorophenyl)-ethenesulfonic acid 4-chloro-2-methyl-benzoylamide; sodium salt] was tested. Which IC50 did it give?
Answer: 0.5 to 15 µM

Question: `COc1ccccc1/C=C/S(=O)(=O)NC(=O)c1ccc(Cl)cc1C` [Example 4-4, (E)-2-(2-Methoxy-phenyl)-ethenesulfonic acid 4-chloro-2-methyl-benzoylamide; sodium salt] was tested. Which IC50 did it give?
Answer: 0.5 to 15 µM

Question: Which IC50 does the source give for `COc1cccc(/C=C/S(=O)(=O)NC(=O)c2ccc(Cl)cc2OC)c1` [Example 4-5, (E)-2-(3-Methoxy-phenyl)-ethenesulfonic acid 4-chloro-2-methoxy-benzoylamide; sodium salt] here?
Answer: 0.5 to 15 µM

Question: For `COc1ccccc1/C=C/S(=O)(=O)NC(=O)c1ccc(Br)cc1C` [Example 4-8, (E)-2-(2-Methoxy-phenyl)-ethenesulfonic acid 4-bromo-2-methyl-benzoylamide; sodium salt], which IC50 is on record?
Answer: 0.5 to 15 µM

Question: How did the IC50 turn out when `Cc1cc(Br)ccc1C(=O)NS(=O)(=O)C=Cc1ccccc1Cl` [Example 4-10, 2-(2-Chlorophenyl)-ethenesulfonic acid 4-bromo-2-methyl-benzoylamide; sodium salt] was run?
Answer: 0.5 to 15 µM

Question: With `COc1ccccc1/C=C/S(=O)(=O)NC(=O)c1ccc(C)cc1Br` [Example 4-13, (E)-2-(2-Methoxy-phenyl)-ethenesulfonic acid 2-bromo-4-methyl-benzoylamide; sodium salt] as the compound, how does the IC50 read?
Answer: 0.5 to 15 µM

Question: With `Cc1ccc(C(=O)NS(=O)(=O)/C=C/c2ccc(Cl)c(Cl)c2)c(Br)c1` [Example 4-16, (E)-2-(3,4-Dichloro-phenyl)-ethenesulfonic acid 2-bromo-4-methyl-benzoylamide; sodium salt] as the compound, how does the IC50 read?
Answer: 0.5 to 15 µM

Question: How did the IC50 turn out when `O=C(NS(=O)(=O)/C=C/c1ccc(C(F)(F)F)cc1)c1ccc(F)cc1Br` [Example 4-17, (E)-2-(4-Trifluoromethyl-phenyl)-ethenesulfonic acid 2-bromo-4-fluoro-benzoylamide; sodium salt] was run?
Answer: 0.5 to 15 µM

Question: With `COc1cccc(/C=C/S(=O)(=O)NC(=O)c2ccc(F)cc2Br)c1` [Example 4-18, (E)-2-(3-Methoxy-phenyl)-ethenesulfonic acid 2-bromo-4-fluoro-benzoylamide; sodium salt] as the compound, how does the IC50 read?
Answer: 0.5 to 15 µM

Question: How did the IC50 turn out when `O=C(NS(=O)(=O)/C=C/c1ccccc1Cl)c1ccc(F)cc1Br` [Example 4-21, (E)-2-(2-Chlorophenyl)-ethenesulfonic acid 2-bromo-4-fluoro-benzoylamide; sodium salt] was run?
Answer: 0.5 to 15 µM
